Where two headings read alike, the source gives them in different places. Marks after values point to notes of the source that are not given here.
Assays:
[1] = Stability and release kinetics of maytansinoid-HSA conjugates in buffer solution at pH 4.0 and pH 7.4; format: physicochemical; conditions: maytansinoid-HSA conjugate, PBS pH 7.4, 37° C.
Description: For preparing HSA conjugates of albumin-binding maytansinoids, HSA (200 μM: 361.8 μL, 1078 μM free Cys34; 100 μM: 180.9 μL, 1078 μM free Cys34) was diluted with PBS buffer (4 mM sodium phosphate, 150 mM NaCl, pH 7.4) (200 μM: 678.2 μL; 100 μM: 859.1 μL) and DMSO (200 μM: 130.0 μL; 100 μM: 195.0 μL) and incubated in a heating block at 37° C. for 30 minutes. The albumin-binding maytansinoid was added as a 2 mM stock solution in DMSO (200 μM: 130.0 μL; 100 μM: 65.0 μL) to the preincubated HSA sample to produce a 200 μM or 100 μM solution of maytansinoid-prodrug and 300 μM or 150 μM of free Cys34. The mixture having a pH of 7.4 was allowed to react for 10 min at 37° C. and was then analyzed hourly for 24 hours by RP-HPLC (Phenomenex Aeris WP XB-C18, 3.6 μm, 250×4.6 mm).
For studying the release kinetics at pH 4.0 the mixture was acidified with a mixture of 50 mM sodium acetate buffer pH 3.0 (200 μM: 119.3 μL; 100 μM: 125.2 μL) and 1 M HCl (200 μM: 12.7 μL; 100 μM: 6.8 μL) to reach pH 4.0. The mixture was subsequently analyzed hourly for 24 hours by RP-HPLC (Phenomenex Aeris WP XB-C18, 3.6 μm, 250×4.6 mm).
The following RP-HPLC conditions were used: Phenomenex Aeris WP XB-C18 3.6 μm, 250×4.6 mm; eluent A (100% 20 mM Tris buffer pH 8.0) and eluent B (90:10, MeCN: water) eluting with a gradient of eluent B (25% 0-0.5 min, 25-35% 0.5-2.5 min, 35-85% 2.5-16 min, 85-95% 16-17 min, 95% 17-20 min, 95-25% 20-25 min, 25% 25-30 min, flow rate 1.0 mL/min). Column oven temperature 37° C.; autosampler temperature 37° C.; 20 μL of injection volume.
To quantify the percentage of free drug released, standard curves of the free maytansinoids were prepared at different concentrations (200 μM, 100 μM, 50 μM, 25 μM and 12.5 μM). The area under the curve (AUC) was determined at 250 nm.

albumin = molecular target: T1, albumin (Homo sapiens, UniProt P02768); assay: in vitro; format: in vitro ADME; conditions: 37° C., 12.0 μM, read-out: % bound (converted)
T1 construct: tissue Zen-Bio; host or cells: pooled human whole blood (K2EDTA, 36 donors) and plasma prepared from it
T1 sequence (P02768 25-609): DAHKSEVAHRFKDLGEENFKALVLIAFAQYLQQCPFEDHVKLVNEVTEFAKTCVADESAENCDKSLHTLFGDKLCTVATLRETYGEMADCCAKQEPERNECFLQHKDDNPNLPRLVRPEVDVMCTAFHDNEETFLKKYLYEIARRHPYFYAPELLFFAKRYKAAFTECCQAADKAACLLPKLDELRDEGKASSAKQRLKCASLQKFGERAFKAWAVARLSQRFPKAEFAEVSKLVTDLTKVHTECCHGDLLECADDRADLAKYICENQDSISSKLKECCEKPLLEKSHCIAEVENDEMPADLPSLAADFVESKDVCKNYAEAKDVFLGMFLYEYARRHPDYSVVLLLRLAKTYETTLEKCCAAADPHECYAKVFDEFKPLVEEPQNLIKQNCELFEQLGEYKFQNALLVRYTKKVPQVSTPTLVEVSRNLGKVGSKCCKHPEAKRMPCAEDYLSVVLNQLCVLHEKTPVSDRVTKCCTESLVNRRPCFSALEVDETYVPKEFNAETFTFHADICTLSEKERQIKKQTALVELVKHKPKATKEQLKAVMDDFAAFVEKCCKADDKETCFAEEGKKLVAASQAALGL
Description: To study the binding kinetics of the albumin-binding maytansinoids in pooled human plasma and pooled human whole blood, the compounds were incubated together with pooled human plasma at 37° C. and samples were taken at specified time points. Remaining albumin-binding maytansinoids were quantitated by HPLC.
To study the binding kinetics in human whole blood, the blood (K2EDTA, 36 donors, Zen-Bio; 900 μL) was preincubated at 37° C. for 30 min in a heating block. To study the binding kinetics in pooled human plasma, the pooled whole blood was centrifuged (10 min, 1811 g), the supernatant plasma was collected and then preincubated at 37° C. for 30 min.
The albumin-binding maytansinoid was added to the preincubated whole blood/plasma sample as a 10-fold dilution in PBS of a 1.2 mM stock solution in 2.5% propylene glycol in 10 mM sodium phosphate buffer and 1.48 mM citrate (100 μL) to produce a 12.0 μM solution of the respective albumin-binding maytansinoid. Samples (190 μL) were taken after 15 s, 2 min, 4 min, 8 min and 15 min. The samples were directly added to 760 μL MeCN containing maytansine (5 μg/mL) as an internal standard and vortexed for 1 min. After centrifugation (1 min at 12,044 g) the supernatant (850 μL) was concentrated under high vacuum. The residue was taken up in DMSO/water (1:1 v/v; 95 μL) and then analyzed by RP-HPLC. Percentage of binding was determined by comparison of the area under the curve (AUC) at 220 nm of the albumin-binding maytansinoid relative to a control sample (100% value) in PBS buffer. All experiments were performed in triplicates.
HPLC method: Phenomenex Kinetex Polar C18, 2.6 μm, 100 Å, 150×4.6 mm; eluent A (95:5 5 mM ammonium acetate: MeCN) and eluent B (5:95 5 mM ammonium acetate: MeCN) eluting with a gradient of eluent B (30% 0-0.5 min, 30-95% 0.5-9.0 min, 95% 11.0 min, 95-30% 11.0-14.5 min, 30% 15.0 min, flow rate=1.0 mL/min). Column oven temperature ambient temperature; autosampler temperature 4° C.; 50 μL of injection volume.

[2] = system: human tumor xenograft models; assay: Antitumor activity in human tumor xenograft mice models; format: in vivo; conditions: five human tumor xenograft models in nude mice, i.v. on day 1, 8, 15, and 22
Excerpt: This included starting tumor volumes in the range of approximately 80-110 mm^3 but also initial starting tumor volumes of up to approximately 400 mm^3. Furthermore, in most cases therapy with albumin-binding maytansinoids 30 and 31 induced long-term remissions and a decrease in Relative Tumor Volume (RTV). […] Experimental procedure and the results in the tumor-bearing mice models are described in detail in Examples 11-19 and FIGS. 3-16.
Female immunodeficient NMRI nude mice, from Charles River, received unilateral tumor implants subcutaneously in the left flank while under isoflurane anesthesia with human cancer tumors until tumors were palpable and had reached a volume of 80-200 mm^3 (unless otherwise stated).
Animals were kept in cages, the temperature inside the cages maintained at 25±1° C. with a relative humidity of 45-65% and an air change rate in the cage of 60-fold per hour. They were kept under a 14 h light: 10 h dark, artificial light cycle. The animals were fed with autoclaved Teklad Global 19% Protein Extruded Diet (T.2019S.12) from Envigo RMS SARL and had access to sterile filtered and acidified (pH 2.5) tap water, which was changed twice weekly. Feed and water were provided ad libitum. […] Animals were routinely monitored twice daily on working days and daily on Saturdays and Sundays. […] Relative body weights (RBW) of individual animals were calculated by dividing the individual absolute body weight on day X (BWx) by the individual body weight on the day of randomization multiplied by 100%. The tumor volume was determined by a two-dimensional measurement with calipers on the day of randomization (day 0) and then twice weekly. Tumor volumes were calculated according to the following equation: Tumor Vol [mm^3]=1 [mm]×w^2 [mm^2]×0.5, where “1” is the length and “w” is width of the tumor. The relative volume of an individual tumor on day X (RTVx) was calculated by dividing the absolute individual tumor volume [mm^3] of the respective tumor on day X (Tx) by the absolute individual tumor volume of the same tumor on the day of randomization multiplied by 100%. […]

[3] = In vitro cytotoxicity in different cell lines using the CellTiter-Blue Cell Viability Assay; format: cell-based, human; conditions: Homo sapiens; geometric mean over the n cell lines tested, 96 h treatment, CellTiter-Blue; read-out: Geomean IC50

SMILES | free maytansinoid after 24 h at pH 7.4 ([1]; measured at 200 μM) [%*] | antitumor activity [2] | other results
COc1cc2cc(c1Cl)N(C)C(=O)C[C@H](OC(=O)CSc1ccc(/C(C)=N/NC(=O)c3ccc(NC(=O)CCCCCN4C(=O)C=CC4=O)cc3S(=O)(=O)O)cc1C)[C@]1(C)O[C@H]1[C@H](C)[C@@H]1C[C@@](O)(NC(=O)O1)[C@H](OC)/C=C/C=C(\C)C2 [Compound 39] | 9.6 |  | 
COc1cc2cc(c1Cl)N(C)C(=O)C[C@H](OC(=O)Cc1ccc(/C(C)=N/NC(=O)c3ccc(NC(=O)CCCCCN4C(=O)C=CC4=O)cc3S(=O)(=O)O)cc1F)[C@]1(C)O[C@H]1[C@H](C)[C@@H]1C[C@@](O)(NC(=O)O1)[C@H](OC)/C=C/C=C(\C)C2 [Compound 30] |  | partial and complete tumor regressions | free maytansinoid after 24 h at pH 7.4 ([1]; measured at 100 μM): 9.6%**; fraction unbound (albumin; blood, pooled human whole blood, 15 s): 0.017; fraction unbound (albumin; blood, pooled human whole blood, 8 min): 0.015; fraction unbound (albumin; plasma, pooled human plasma, 15 s): 0.036; fraction unbound (albumin; plasma, pooled human plasma, 8 min): 0.015
COc1cc2cc(c1Cl)N(C)C(=O)C[C@H](OC(=O)CSc1ccc(/C(C)=N/NC(=O)c3ccc(NC(=O)CCCCCN4C(=O)C=CC4=O)cc3S(=O)(=O)O)cc1C(F)(F)F)[C@]1(C)O[C@H]1[C@H](C)[C@@H]1C[C@@](O)(NC(=O)O1)[C@H](OC)/C=C/C=C(\C)C2 [Compound 38] | 4.9 |  | 
COc1cc2cc(c1Cl)N(C)C(=O)C[C@H](OC(=O)CCc1ccc(/C(C)=N/NC(=O)c3ccc(NC(=O)CCCCCN4C(=O)C=CC4=O)cc3S(=O)(=O)O)cc1)[C@]1(C)O[C@H]1[C@H](C)[C@@H]1C[C@@](O)(NC(=O)O1)[C@H](OC)/C=C/C=C(\C)C2 [Compound 41] | 4.6 |  | 
COc1cc2cc(c1Cl)N(C)C(=O)C[C@H](OC(=O)[C@H](C)N(C)C(C)=O)[C@]1(C)O[C@H]1[C@H](C)[C@@H]1C[C@@](O)(NC(=O)O1)[C@H](OC)/C=C/C=C(\C)C2 [Maytansine, maytansine, reference compound] |  | principally inactive in the tested models or only showed marginal tumor inhibition | IC50 [3]: 0.22 nM
COc1cc2cc(c1Cl)N(C)C(=O)C[C@H](OC(=O)CN(C)c1ccc(/C(C)=N/NC(=O)c3ccc(NC(=O)CCCCCN4C(=O)C=CC4=O)cc3S(=O)(=O)O)cc1)[C@]1(C)O[C@H]1[C@H](C)[C@@H]1C[C@@](O)(NC(=O)O1)[C@H](OC)/C=C/C=C(\C)C2 [Compound 40] | 8.9 |  | 

From patent US11572373B2, “Maytansinoid-based drug delivery systems” (LADRX CORPORATION, priority 2017, dated 2023)
